# Where “and” joins values, the source holds several entries; their conditions need not be identical. Identical values can stand only once.
# Tests used:
# Format in all cases: cell-based
# 320 non-olfactory GPCRs [1] = molecular target: T1, 320 non-olfactory GPCRs (Homo sapiens, UniProt Q96LB0); details: receptor MRGPRX3; replicate values, Fig_4g
# T1 construct: expressed in transfected cells; host or cells: HTLA cells
# 320 non-olfactory GPCRs [2] = molecular target: T2, 320 non-olfactory GPCRs (Homo sapiens, UniProt Q96P66)
# T2 construct: expressed in transfected cells; host or cells: HTLA cells
# T2 sequence (Q96P66 whole entry): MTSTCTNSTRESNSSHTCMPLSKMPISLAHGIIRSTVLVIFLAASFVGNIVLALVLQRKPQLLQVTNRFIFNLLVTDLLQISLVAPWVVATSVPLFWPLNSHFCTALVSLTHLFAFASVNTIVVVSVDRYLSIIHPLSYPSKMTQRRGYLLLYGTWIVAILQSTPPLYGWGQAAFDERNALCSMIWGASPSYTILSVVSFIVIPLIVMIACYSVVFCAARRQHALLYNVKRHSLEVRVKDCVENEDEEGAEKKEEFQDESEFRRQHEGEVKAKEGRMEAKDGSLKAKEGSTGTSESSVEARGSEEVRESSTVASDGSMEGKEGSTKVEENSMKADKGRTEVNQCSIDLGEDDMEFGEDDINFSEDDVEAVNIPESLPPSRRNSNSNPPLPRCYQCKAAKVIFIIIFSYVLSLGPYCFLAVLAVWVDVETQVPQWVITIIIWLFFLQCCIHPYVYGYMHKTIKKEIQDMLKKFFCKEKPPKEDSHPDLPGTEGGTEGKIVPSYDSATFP
# 320 non-olfactory GPCRs [3] = molecular target: T3, 320 non-olfactory GPCRs (Homo sapiens, UniProt O15552)
# T3 construct: expressed in transfected cells; host or cells: HTLA cells
# T3 sequence (O15552 whole entry): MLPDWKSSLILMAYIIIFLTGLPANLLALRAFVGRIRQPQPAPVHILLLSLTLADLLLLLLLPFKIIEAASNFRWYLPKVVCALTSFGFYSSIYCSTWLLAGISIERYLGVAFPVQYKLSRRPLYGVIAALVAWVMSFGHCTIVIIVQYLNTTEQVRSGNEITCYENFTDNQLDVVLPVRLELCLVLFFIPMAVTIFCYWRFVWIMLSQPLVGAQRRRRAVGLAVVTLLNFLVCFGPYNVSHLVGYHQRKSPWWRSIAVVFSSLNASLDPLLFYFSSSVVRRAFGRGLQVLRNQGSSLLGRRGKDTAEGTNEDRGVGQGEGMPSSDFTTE
# 320 non-olfactory GPCRs [4] = molecular target: 320 non-olfactory GPCRs (Homo sapiens, UniProt P21728)
# Chain of 320 non-olfactory GPCRs (Homo sapiens, UniProt P21728) (P21728 whole entry): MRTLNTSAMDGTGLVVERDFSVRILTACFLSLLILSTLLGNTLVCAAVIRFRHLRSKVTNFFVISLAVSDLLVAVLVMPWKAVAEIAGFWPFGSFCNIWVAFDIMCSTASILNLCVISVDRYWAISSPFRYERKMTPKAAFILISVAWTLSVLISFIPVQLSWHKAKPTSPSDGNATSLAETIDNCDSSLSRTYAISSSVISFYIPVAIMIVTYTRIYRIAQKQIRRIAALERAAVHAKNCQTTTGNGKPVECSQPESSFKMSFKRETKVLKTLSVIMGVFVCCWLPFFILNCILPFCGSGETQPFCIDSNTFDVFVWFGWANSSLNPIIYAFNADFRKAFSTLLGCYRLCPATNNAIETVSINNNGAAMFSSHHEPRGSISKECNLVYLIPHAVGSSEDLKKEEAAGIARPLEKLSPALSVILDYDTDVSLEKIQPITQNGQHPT
# 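For Fold of Basal in this document: compound tested at 1 µM final concentration.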
# 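For GPCRome agonism screen response in this document: fold over basal response of each receptor without drug.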
# T1 sequence (Q96LB0 whole entry): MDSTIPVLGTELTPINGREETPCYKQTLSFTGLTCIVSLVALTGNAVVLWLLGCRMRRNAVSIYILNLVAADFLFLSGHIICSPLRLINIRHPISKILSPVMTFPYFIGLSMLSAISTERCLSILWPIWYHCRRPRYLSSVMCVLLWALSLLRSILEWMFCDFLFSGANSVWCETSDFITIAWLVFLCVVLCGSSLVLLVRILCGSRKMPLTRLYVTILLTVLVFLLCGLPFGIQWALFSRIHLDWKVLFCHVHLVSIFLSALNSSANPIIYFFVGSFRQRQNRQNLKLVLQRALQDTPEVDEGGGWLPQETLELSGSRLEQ
compound,measurement,setting,value
CCOc1cccc2cc(C(C)NCC3(O)CCCCC3)oc12 (stereo not shown) [O4LE6],GPCRome agonism screen response,320 non-olfactory GPCRs [1],0.501 and 0.6269 and 0.3987 and 0.4556
same,Fold of Basal,320 non-olfactory GPCRs [2],1.216 and 1.226 and 0.7864 and 1.078
same,Fold of Basal,320 non-olfactory GPCRs [3],0.7744 and 0.8932 and 0.7484 and 0.9767
same,Fold of Basal,320 non-olfactory GPCRs [4],0.7632 and 1.021 and 0.953 and 0.8141

# Source: paper PMC7044277 (Nature Communications, 2020)
